{"source": "paper PMC3442999", "about": "“Characterization of purified and Xerogel immobilized Novel Lignin Peroxidase produced from Trametes versicolor IBL-04 using solid state medium of Corncobs” (BMC Biotechnology, 2012)", "system": "T1, LiP (lignin peroxidase) of T. versicolor IBL-04", "T1 construct": "native secreted enzyme purified from solid-state culture on corncobs (ammonium sulfate, Sephadex G-100, DEAE-cellulose); monomer, 30 kDa on SDS and native PAGE", "assay": "veratryl alcohol oxidation to veratraldehyde at […] nm, Lineweaver-Burk", "assay_type": "biochemical, Trametes versicolor", "settings": "free enzyme; H2O2 co-substrate; incubated 15 min at 25°C in citrate phosphate pH 6.0 before assay; 100-1000 μM substrate", "data": [{"smiles": "COc1ccc(CO)cc1OC", "note": "[veratryl alcohol]", "values": [{"measurement": "Km", "result": 70, "unit": "µM"}]}]}
